Columns and labels:
[1] = system: GPX4^high HT-1080 cells; assay: Cell viability / cell death (ferroptosis) in HT-1080 cells; type: cell-based, human; conditions: 24 hours; for protection against GPX4 inhibition (RSL3 or ML162)-induced ferroptosis: DHODH WT, pretreatment 10 μM
Protocol: (§1) Briefly, cells were seeded onto 96-well plates at a density of 2×10^4 per well. The next day, cells were treated with GPX4 or DHODH inhibitors for 4 hours. Subsequently, cells exposed to 10 μl CCK-8 reagent (100 μl medium per well) for 1 hour at 37° C., 5% CO2 in an incubator. The absorbance at a wavelength of 450 nm was determined using a FLUOstar Omega microplate reader (BMG Labtech).
(§2) For propidium iodide-staining, cells were seeded at a density of 50% confluence into 12-well plates. The next day, cells were treated with different reagents. To measure cell death, the cells were collected (including floating dead cells), stained with 5 μg/ml propidium iodide and the percentage of the propidium iodide-positive dead cell population was analyzed using the flow cytometer BD Accuri C6 (BD Biosciences) and an FL2 detector. A minimum of 10,000 single cells were analyzed per well and all experiments were carried out at least in triplicate.

[2] = system: multiple cancer cell lines; assay: Global metabolomic analysis; type: cell-based, human; conditions: short-term (2-hour) treatment, 10 μM
Protocol: (§3) Metabolomic analysis was performed as previously described (Liu, X., et al., Nat Cell Biol 22, 476-486 (2020)). Cells were seeded on 35 mm culture plates at a density sufficient to ensure approximately 70-80% confluence at the time of extraction. For metabolic tracer analysis of pyrimidine synthesis, HT-1080 cells were treated with RSL3 and/or Lip-1 for 2 hours and then were shifted to drug-free media containing amide-^15N-glutamine (this time point is defined as 0 hour). Metabolites were extracted at the indicated time points for subsequent analyses. Metabolites were extracted by rapidly aspirating the culture medium and then adding 0.6 mL of an 80% methanol: 20% water mixture at dry ice temperature. The plates were incubated on dry ice for 15 minutes before the cell material was scraped into eppendorf tubes pre-chilled on ice. The cell debris was pelleted by centrifugation at 13,000 RCF for 5 minutes at 4° C. and the supernatant was transferred to a fresh tube and stored on dry ice until analysis. Just prior to analysis, 500 μL of extract was dried under nitrogen gas flow and then resuspended in 100 μL water.
(§4) The complete platform consists of an Accela 1250 HPLC system, Accela Open Autosampler, MayLab Mistraswitch column oven and Exactive orbitrap mass spectrometer, controlled by the Xcalibur 3.0.63 software package. Chromatography was performed with a Phenomenex Synergi Hydro-RP column (100×2 mm, 2.5 μm particle size). Solvent A is 10 mM tributylamine and […] acetic acid in water; Solvent B is methanol. The gradient is: 0 min, 0% B; 2.5 min, 0% B; 5 min, 20% B; 7.5 min, 20% B; 13 min, 55% B; 15.5 min, 95% B; 18.5 min, 95% B; 19 min, 0% B; 25 min, 0% B. The injection volume was 10 μL. The column temperature was set to 40° C., and the flow rate was 200 μL/min. The Exactive was operated in negative ionization mode with an electrospray ionization interface. The instrument parameters are as follows: sheath gas flow rate 30 (arbitrary units), aux gas flow rate 10 (arbitrary units), sweep gas flow rate 3 (arbitrary units), spray voltage 3 kV, capillary temperature 325° C., capillary voltage −25 V, tube lens voltage −50 V. The scan range was set to 80-1000 m/z, with a maximum inject time of 250 ms, resolution of 100,000 at 1 Hz, and AGC (automatic gain control) target 1E6. The data were analyzed using the MAVEN software suite57 with signal intensity determined as the Peak Area (Top). For metabolic labeling experiments, the data were corrected to account for the natural abundance of nitrogen-15 using IsoCorrectoR (Heinrich, P., et al., Sci Rep 8, 17910 (2018)).

[3] = system: DHODH KO HT-1080 cells; assay: Cell viability / cell death (ferroptosis) in DHODH KO HT-1080 cells; type: cell-based, human; conditions: for protection against GPX4 inhibition (RSL3 or ML162)-induced ferroptosis: DHODH KO, pretreatment 10 μM, 24 hours
Protocol: Knockout of DHODH, ACSL4 and COQ2 in human cell lines was performed using single guide RNAs (sgRNAs) and doxycycline (DOX)-inducible CRISPR-Cas9 expression system as described in our recent publication (Lee, H., et al., Nature cell biology 22, 225-234 (2020)). sgRNAs were cloned into the lentiviral lentiGuide vector. LentiGuide clones were transfected into HEK293T cells with psPAX2 packaging plasmid and pMD2.G expressing plasmid. Cells were infected with lentivirus with 0.8 μg/ml polybrene, selected with puromycin (1 μg/ml, InvivoGen), blasticidin (2 μg/ml, InvivoGen) or hygromycin B (2 μg/ml, InvivoGen) for 3 days and then single cells were sorted into 96-well plates. Single cells were maintained in DMEM with 10% (v/v) FBS and 1% (v/v) penicillin/streptomycin at 37° C. in an incubator with 20% O2 and 5% CO2 for 3-4 weeks and each colony was verified by western blot to confirm the target gene deletion. To generate cell lines with DOX-inducible CRISPR-Cas9-mediated gene deletion, cells were infected with lentivirus, selected with puromycin (1 μg/ml, InvivoGen), blasticidin (2 μg/ml, InvivoGen) or hygromycin B (2 μg/ml, InvivoGen) for 2 days and then single cells were sorted into 96-well plates. Once cell lines were established, 1 μg/ml of DOX (Sigma-Aldrich) was added to the media to induce target gene deletion for 48 hours after selection; then cells were cultured in DOX-free media for subsequent analyses.
as §1, with “Viable cells were measured using Cell Counting Kit-8 (CCK-8, Dojindo) as previously described (Koppula, P., Zhang, Y., Shi, J., Li, W. & Gan, B, J Biol Chem 292, 14240-14249 (2017); Liu, X. & Gan, B, Cell Cycle 15, 3471-3481 (2016)). Briefly,” for “Briefly,”
as §2, with “Cell death was measured by propidium iodide (Roche) staining using a flow cytometer, as previously described (Dai, F., et al., Proc Natl Acad Sci USA 114, 3192-3197 (2017); Zhang, Y., et al., Cancer Res 80, 2243-2256 (2020)). For” for “For”

[4] = system: GPX4^low NCI-H226 cells; assay: Cell viability / cell death (ferroptosis) in NCI-H226 cells; type: cell-based, human; conditions: pretreatment 48 hours (C-Asp, DHO, OA 100 μM; uridine 50 μM), RSL3 4 hours
Protocol: as §1, with “Viable cells were measured using Cell Counting Kit-8 (CCK-8, Dojindo) as previously described (Koppula, P., Zhang, Y., Shi, J., Li, W. & Gan, B, J Biol Chem 292, 14240-14249 (2017); Liu, X. & Gan, B, Cell Cycle 15, 3471-3481 (2016)). Briefly,” for “Briefly,”
as §2, with “Cell death was measured by propidium iodide (Roche) staining using a flow cytometer, as previously described (Dai, F., et al., Proc Natl Acad Sci USA 114, 3192-3197 (2017); Zhang, Y., et al., Cancer Res 80, 2243-2256 (2020)). For” for “For”

[5] = system: NCI-H226 cells; assay: Intracellular metabolite levels upon supplementation; type: in vitro ADME, human; conditions: for intracellular levels upon supplementation: 100 μM, 48 hours
Protocol: as §3, §4

[6] = system: GPX4^high and GPX4^low cancer cell lines; assay: Cell viability in panel of GPX4^high and GPX4^low cancer cell lines; type: cell-based, human; conditions: supplementation 100 μM 48 hours, RSL3 4 hours
Protocol: as §1, with “Viable cells were measured using Cell Counting Kit-8 (CCK-8, Dojindo) as previously described (Koppula, P., Zhang, Y., Shi, J., Li, W. & Gan, B, J Biol Chem 292, 14240-14249 (2017); Liu, X. & Gan, B, Cell Cycle 15, 3471-3481 (2016)). Briefly,” for “Briefly,”

[7] = system: DHODH KO HT-1080 cells; assay: Mitochondrial lipid peroxidation (mito-BODIPY) in DHODH KO HT-1080 cells; type: cell-based, human; conditions: pretreatment 10 μM, 24 hours

Compound | protection against GPX4 inhibition (RSL3 or ML162)-induced ferroptosis [1] | effect of supplementation on cellular sensitivity to GPX4 inhibition (RSL3) [4] | intracellular levels upon supplementation [5] | suppression of GPX4 inhibitor-induced mitochondrial lipid peroxidation [7] | protection against GPX4 inhibition (RSL3 or ML162)-induced ferroptosis [3] | also measured
COC1=C(OC)C(=O)C(CCCCCCCCCC[P+](c2ccccc2)(c2ccccc2)c2ccccc2)=C(C)C1=O [mitoQ, [10-(4,5-dimethoxy-2-methyl-3,6-dioxo-1,4-cyclohexadien-1-yl)decyl] triphenyl-phosphonium, monomethanesulfonate] | provided limited protection | – | – | – | – | –
COc1ccc(N(C(=O)CCl)C(C(=O)NCCc2ccccc2)c2cccs2)cc1Cl (stereo not shown) [ML162] | – | – | – | – | – | C-Asp level [2]: marked depletion; uridine level [2]: concomitant accumulation; sensitization by DHODH deletion to compound-induced lipid peroxidation and ferroptosis ([3]; uridine-supplemented conditions): markedly sensitized
N-benzyloxycarbonyl-val-ala-asp(o-me) fluoromethyl ketone [Z-VAD-FMK] | – | – | – | – | – | rescue of DHODH inhibition-induced cell death ([1]; BQR, pretreatment Lip-1 or ZVF 10 μM): the opposite was observed
O=C(O)c1cc(=O)[nH]c(=O)[nH]1 [OA, orotate] | – | sensitized cells to | drastically increased | – | – | protecting (DHO) or sensitizing (OA) effect in GPX4^low versus GPX4^high cell lines [6]: much more pronounced
CC1(C)CC(NC(=O)C[P+](c2ccccc2)(c2ccccc2)c2ccccc2)CC(C)(C)N1[O] [mito-TEMPO, 2-(2,2,6,6-tetramethylpiperidin-1-oxyl-4-ylamino)-2-oxoethyl) triphenylphosphonium chloride] | – | – | – | could be suppressed | provided substantial protection | –
COc1c(O)c(C)c(CCCCCCCCCC[P+](c2ccccc2)(c2ccccc2)c2ccccc2)c(O)c1OC.CS(=O)(=O)[O-] [mitoQH2, [10-(2,5-dihydroxy-3,4-dimethoxy-6-methylphenyl)decyl] triphenyl-phosphonium, monomethanesulfonate] | provided limited protection | – | – | significantly protected | significantly protected | –
CC1(C)CCCC(C)(C)N1[O] [TEMPO, 2,2,6,6-tetramethyl-1-piperidinyloxy] | rescued | – | – | could be suppressed | rescued | –
O=C1CC(C(=O)O)NC(=O)N1 (stereo not shown) [DHO, dihydroorotate] | – | protected cells from | drastically increased | – | – | protecting (DHO) or sensitizing (OA) effect in GPX4^low versus GPX4^high cell lines [6]: much more pronounced
NC(=O)N[C@@H](CC(=O)O)C(=O)O [C-Asp, N-Carbamoyl-L-aspartate] | – | did not affect ferroptosis sensitivity | only moderately increased | – | – | cell permeability [5]: largely impermeable to cells

— patent US20240148757A1, “USE OF DIHYDROOROTATE DEHYDROGENASE (DHODH) INHIBITORS TO TARGET FERROPTOSIS IN CANCER THERAPY” (BOARD OF REGENTS, THE UNIVERSITY OF TEXAS SYSTEM, priority 2021, published 2024)
